Assay results reported in PubChem BioAssay (NCI).
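Each compound was tested at five concentrations against cells in 96-well plates for 48 hours. At the GI50, growth is halved. TGI is the concentration that stops growth completely.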

Experiments:
Assay in all cases: NCI-60 cell line screen, 48 h
[1] = tested on: OVCAR-5 ovarian
[2] = tested on: SR leukemia
[3] = tested on: HOP-62 NSCLC
[4] = tested on: NCI-H522 lung
[5] = tested on: OVCAR-4 ovarian
[6] = tested on: SW-620 colon
[7] = tested on: HCT-15 colon
[8] = tested on: SF-268 CNS
[9] = tested on: UACC-257 melanoma
[10] = tested on: U251 CNS

Row | SMILES | TGI [1] [µM] | TGI [2] [µM] | TGI [3] [µM] | TGI [4] [µM] | TGI [5] [µM] | TGI [6] [µM] | TGI [7] [µM] | TGI [8] [µM] | TGI [9] [µM] | TGI [10] [µM] | GI50 [1] [µM] | GI50 [2] [µM] | GI50 [3] [µM] | GI50 [4] [µM] | GI50 [5] [µM] | GI50 [6] [µM] | GI50 [7] [µM] | GI50 [8] [µM] | GI50 [9] [µM] | GI50 [10] [µM]
1 | CCOC(=O)Nc1ccc(S(=O)(=O)Nn2cnnc2)cc1 | > 100 | > 100 | > 100 | > 100 | 73.4 | > 100 | > 100 | > 100 | > 100 | > 100 |  |  |  |  |  |  |  |  |  | 
2 | COc1nc(C#CC2CCCCC2)nc(OC)n1 | 12.3 | > 100 | 18.4 | 6.33 | 27.3 | 15.6 | 5.97 | 20.4 | 23.5 | 16.7 |  |  |  |  |  |  |  |  |  | 
3 | Cc1ncc(COP(=O)(O)O)c(/C=C2\SC(=S)NC2=O)c1O | > 100 | > 100 | > 100 | > 100 | > 100 | > 100 | > 100 | > 100 | > 100 | > 100 |  |  |  |  |  |  |  |  |  | 
4 | CC(=O)C(C)(C)CCC(C)(C)C(C)=O | > 100 | > 100 | > 100 | > 100 | > 100 | > 100 | > 100 | > 100 | > 100 | > 100 |  |  |  |  |  |  |  |  |  | 
5 | C#CCOC(=O)c1ccc(OC(C)=O)cc1 | > 100 | > 100 | > 100 | > 100 | > 100 | > 100 | > 100 | > 100 | > 100 | > 100 |  |  |  |  |  |  |  |  |  | 
6 | O=c1c2ccccc2nc2ccc3c(Cl)[nH][nH]c3c12 | 98 | > 100 | > 100 | > 83.1 | > 100 | > 100 | > 100 | > 100 | > 92.7 | > 100 |  |  |  |  |  |  |  |  |  | 
7 | CCOC(=O)C1=C(O)c2ccc(C)cc2C(=O)C1=O | > 100 | > 100 | > 100 | > 100 | > 100 | > 100 | > 100 | > 100 | > 100 | > 100 |  |  |  |  |  |  |  |  |  | 
8 | OC(NN=C1CCCC1)(C(F)(F)Cl)C(F)(F)Cl | > 10 | > 10 | > 10 | > 10 | > 10 | > 10 | > 10 | > 10 | > 10 | > 10 |  |  |  |  |  |  |  |  |  | 
9 | Oc1ccc(-c2nc3ccccc3s2)cc1 | > 100 | 87.7 | > 100 | 47.9 | > 100 | > 100 | > 100 | 90.2 | > 100 | > 100 |  |  |  |  |  |  |  |  |  | 
10 | Cc1c2cccc-2ccc2c3ccccc3n(C(=O)c3ccc(Cl)cc3)c12 | > 100 | > 100 | > 100 | > 100 | > 100 | > 100 | > 100 | > 100 | > 100 | > 100 |  |  |  |  |  |  |  |  |  | 
11 | CC(C)c1cc(C(C)C)c(S(=O)(=O)N=[N+]=[N-])c(C(C)C)c1 | > 100 | > 100 | > 100 | > 100 | > 100 | > 100 | > 100 | > 100 | > 100 | > 100 |  |  |  |  |  |  |  |  |  | 
12 | Clc1ccc(C2=CCN3CC=C(c4ccc(Cl)cc4)C23)cc1 | 17 | 21.9 | 26.7 | 22.8 | 26.1 | 26 | 23.5 | 24.2 | 24.2 | 23.7 |  |  |  |  |  |  |  |  |  | 
13 | COc1cc(Oc2nc3cc(F)c(F)cc3nc2-c2ccccc2)cc(OC)c1OC | > 100 | > 100 | > 100 | > 100 | > 100 | > 100 | > 100 | > 100 | > 100 | > 100 |  |  |  |  |  |  |  |  |  | 
14 | COc1cc2nc(-c3cccs3)nc(Nc3cccc(Cl)c3)c2cc1OC | > 100 | > 100 | 45.3 | > 100 | > 100 | > 100 | > 100 | > 100 | > 100 | > 100 |  |  |  |  |  |  |  |  |  | 
15 | CC(=O)OC[C@H]1On2nnnc2[C@H](OC(C)=O)[C@@H](OC(C)=O)[C@@H]1OC(C)=O | > 100 | > 100 | > 100 | > 100 | > 100 | > 100 | > 100 | > 100 | > 100 | > 100 |  |  |  |  |  |  |  |  |  | 
16 | CSc1cnc2ccccc2c1Sc1c[nH]c2ccccc2c1=O | 59.4 | > 52 | 43.6 | 11 | 33 | > 32.3 | > 80.8 | > 100 | 48 | 23.8 |  |  |  |  |  |  |  |  |  | 
17 | CC(=O)OCC1OC(n2c(C)c(C)c(C)c(C#N)c2=S)C(OC(C)=O)C(OC(C)=O)C1OC(C)=O (stereo not given) | > 100 | > 100 | 49.8 | 69.1 | > 100 | > 100 | > 100 | > 100 | > 100 | > 100 |  |  |  |  |  |  |  |  |  | 

Row | SMILES | TGI [1] [µM] | TGI [2] [µM] | TGI [3] [µM] | TGI [4] [µM] | TGI [5] [µM] | TGI [6] [µM] | TGI [7] [µM] | TGI [8] [µM] | TGI [9] [µM] | TGI [10] [µM] | GI50 [1] [µM] | GI50 [2] [µM] | GI50 [3] [µM] | GI50 [4] [µM] | GI50 [5] [µM] | GI50 [6] [µM] | GI50 [7] [µM] | GI50 [8] [µM] | GI50 [9] [µM] | GI50 [10] [µM]
18 | CC1(C)CC[C@]2(C(=O)O)CC[C@]3(C)[C@H](C(=O)C=C4[C@@]5(C)C=C(C#N)C(=O)C(C)(C)[C@@H]5CC[C@]43C)[C@@H]2C1 | 2.12 | 2.06 | 3.28 | 5.48 | 23.2 | 2.42 | 1.7 | 7.78 | 2.84 | 3.01 |  |  |  |  |  |  |  |  |  | 
19 | CCC(=O)OC1CCn2c1nc1c2C(=O)C(C)=C(NC(C)=O)C1=N (stereo not given) | 3.47 | > 100 | 3.47 | 2.79 | 2.66 | 2.44 | 6.27 | 4.94 | 2.5 | 17.2 |  |  |  |  |  |  |  |  |  | 
20 | CC(C)Oc1cccc(N2C(Nc3ccccc3)=Nc3ccncc3S2(=O)=O)c1 | > 100 | > 100 | > 100 | > 100 | > 100 | 57.4 | 75.5 | > 100 | 50.4 | > 100 |  |  |  |  |  |  |  |  |  | 
21 | O=C(Nc1nn[nH]n1)c1nc(-c2ccccc2)cc(=O)[nH]1 | > 100 | > 100 | > 100 | > 100 | > 100 | > 100 | > 100 | > 100 | > 100 | > 100 |  |  |  |  |  |  |  |  |  | 
22 | Oc1ccc(Oc2cc3c(cc2Oc2ccc(O)cc2)-c2nc-3nc3[nH]c(nc4nc(nc5[nH]c(n2)c2cc(Oc6ccc(O)cc6)c(Oc6ccc(O)cc6)cc52)-c2cc(Oc5ccc(O)cc5)c(Oc5ccc(O)cc5)cc2-4)c2cc(Oc4ccc(O)cc4)c(Oc4ccc(O)cc4)cc32)cc1 | > 100 | > 100 | > 100 | > 100 | > 100 | > 100 | > 100 | > 100 | > 100 | > 100 |  |  |  |  |  |  |  |  |  | 
23 | Cc1ccc(S(=O)(=O)NC(=O)C2=C3SCCN3C(=O)N(S(=O)(=O)c3ccc(C)cc3)C2c2ccccc2)cc1 (stereo not given) | > 100 | > 100 | > 100 | 46.7 | > 100 | > 100 | > 100 | > 100 | > 100 | > 100 |  |  |  |  |  |  |  |  |  | 
24 | CCOC(=O)CCC(C(=O)OCC)n1nnc2cc(Nc3c(C)[n+]([O-])c4cc(F)c(OCC)cc4[n+]3[O-])ccc21 (stereo not given) | > 100 | > 100 | > 100 | > 100 | > 100 | > 100 | > 100 | 94.9 | > 100 | > 100 |  |  |  |  |  |  |  |  |  | 
25 | NC(N)=NC1C(O)C(O)C(O)C(N=C(N)N)C1O (stereo not given) | > 100 | > 100 | > 100 | > 100 | > 100 | > 100 | > 100 | > 100 | > 100 | > 100 |  |  |  |  |  |  |  |  |  | 
26 | O=[Se](O)O | 4.82 | > 28.6 | 1.95 | 39 | 21.1 | > 100 | > 100 | 4.94 | > 100 | 2.82 |  |  |  |  |  |  |  |  |  | 
27 | Cc1cc(S(=O)(=O)/N=C(/NN)Nc2ccc(Cl)cc2)c(S)cc1Cl | 12.9 | > 100 | 28 | 42.9 | 62.8 | 35.9 | 53 | 61.8 | 72.5 | 21.7 |  |  |  |  |  |  |  |  |  | 
28 | NCCSCCC(=O)O | > 100 | > 83.9 | > 100 | > 100 | > 100 | > 100 | > 100 | > 100 | > 100 | > 67.4 |  |  |  |  |  |  |  |  |  | 
29 | O=C(O)c1ccccc1C1c2ccccc2Oc2ccccc21 | > 100 | > 100 | > 100 | > 100 | > 100 | > 100 | > 100 | > 100 | > 100 | > 100 |  |  |  |  |  |  |  |  |  | 
30 | O=c1c2nc(-c3ccccc3)oc2n(-c2ccccc2)c(=O)n1-c1ccccc1 | > 46.4 | > 31.6 | 29.7 | 39.1 | 36.6 | > 46.4 | > 46.4 | 39.3 | > 46.4 | 33.1 |  |  |  |  |  |  |  |  |  | 
31 | COc1ccc(C)cc(=O)c1O | > 100 | 38.6 | > 100 | 84.8 | > 100 | > 100 | > 100 | > 100 | > 100 | > 100 |  |  |  |  |  |  |  |  |  | 
32 | Cc1nc(-c2cc3ccccc3oc2=O)cs1 | > 100 | > 100 | 42 | > 100 | > 100 | > 100 | > 100 | > 100 | > 100 | > 100 |  |  |  |  |  |  |  |  |  | 
33 | O=C1C2C=CC(n3[nH]c(=O)n(Cc4ccccc4)c3=O)CC2C(=O)N1c1ccc(Br)cc1 (stereo not given) | > 100 | > 100 | > 100 | > 100 | > 100 | > 100 | > 100 | > 100 | > 100 | > 100 |  |  |  |  |  |  |  |  |  | 
34 | COc1ccccc1C1C(C#N)=C(N)Oc2n[nH]c(C)c21 (stereo not given) | > 100 | > 100 | > 100 | > 100 | > 100 | > 100 | > 100 | > 100 | > 100 | > 100 | > 100 | 37.8 | > 100 | 56.3 | > 100 | > 100 | > 100 | > 100 | > 100 | 92.9
